Measurements taken from patent US20250353891A1 (MEDIMMUNE LIMITED, priority 2022, published 2025).
Starred links: 1 amine or outer side, 2 acyl side, 3 side chain; linkers in the order of their positions; H or OH if unused. Non-standard residues stand in square brackets, D forms with d. Residues, ends and D or L forms follow the SMILES beside them. Groups on a side chain read outwards from the residue. *: point of attachment. C20 diacid = O=C(O)CCCCCCCCCCCCCCCCCCC(=O)*; C18 diacid = O=C(O)CCCCCCCCCCCCCCCCC(=O)*; γGlu = O=C(O)[C@H](CCC(=O)[*:2])N[*:1]; αMeF = C[C@](N)(Cc1ccccc1)C(=O)O; AEEA = NCCOCCOCC(=O)O; Aib = CC(C)(N)C(=O)O

How the values were obtained:
[1] = molecular target: human GLP-1 receptor (hGLP-1R) (Homo sapiens, UniProt P43220); test: cAMP production (HTRF) in CHO cells expressing hGLP-1R; type: cell-based; design: expressed in transfected cells; conditions: for EC50: Table 6, peptides modified at position 17, cAMP in CHO hGLP-1R cells, geometric mean, read-out: hGLP-1R EC50; for % Relative Potency Ratio: Table 6, % GLP-1R activity relative to GLP-1 / % GlucR activity relative to glucagon
Chain of human GLP-1 receptor (hGLP-1R) (P43220 24-463): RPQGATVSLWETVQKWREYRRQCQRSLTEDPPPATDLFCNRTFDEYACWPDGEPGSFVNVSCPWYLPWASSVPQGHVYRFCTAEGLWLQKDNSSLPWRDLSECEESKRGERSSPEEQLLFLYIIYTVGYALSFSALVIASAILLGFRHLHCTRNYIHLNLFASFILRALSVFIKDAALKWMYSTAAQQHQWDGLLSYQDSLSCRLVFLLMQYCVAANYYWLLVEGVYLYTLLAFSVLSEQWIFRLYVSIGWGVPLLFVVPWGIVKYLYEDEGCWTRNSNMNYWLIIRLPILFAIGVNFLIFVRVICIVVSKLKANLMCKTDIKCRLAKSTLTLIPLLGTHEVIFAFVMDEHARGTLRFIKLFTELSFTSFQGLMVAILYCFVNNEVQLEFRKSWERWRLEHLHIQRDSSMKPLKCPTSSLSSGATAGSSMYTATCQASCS
In short: (§1)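 Read-out: HTRF cAMP (anti-cAMP cryptate donor, cAMP-d2 acceptor in conjugate/lysis buffer), converted to % Delta F and fitted by 4-parameter logistic for EC50. Cell densities were 1×10^5 cells/mL (hGLP-1R) or 2×10^5 cells/mL (hGCGR). Stimulation lasted 30 min at room temperature.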

[2] = molecular target: human glucagon receptor (hGCGR) (Homo sapiens, UniProt P47871); test: cAMP production (HTRF) in CHO cells expressing hGCGR; type: cell-based; design: expressed in transfected cells; conditions: Table 6, peptides modified at position 17; cAMP in CHO hGCGR cells; geometric mean; read-out: hGluc-R EC50
Chain of human glucagon receptor (hGCGR) (P47871 26-477): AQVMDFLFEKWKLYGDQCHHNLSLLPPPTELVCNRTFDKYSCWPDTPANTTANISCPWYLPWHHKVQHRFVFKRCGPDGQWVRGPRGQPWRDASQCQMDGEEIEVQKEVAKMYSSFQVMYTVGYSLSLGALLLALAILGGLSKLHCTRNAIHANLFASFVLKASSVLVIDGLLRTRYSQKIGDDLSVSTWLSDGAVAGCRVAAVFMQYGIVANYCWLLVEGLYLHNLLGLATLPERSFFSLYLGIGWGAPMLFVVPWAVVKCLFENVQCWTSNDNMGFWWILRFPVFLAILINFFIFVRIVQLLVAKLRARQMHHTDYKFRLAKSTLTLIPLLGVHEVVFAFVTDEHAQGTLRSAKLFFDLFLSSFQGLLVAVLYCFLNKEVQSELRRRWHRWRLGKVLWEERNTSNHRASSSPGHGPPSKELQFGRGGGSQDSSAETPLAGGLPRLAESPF
In short: as §1

Structure (SMILES) | EC50 [1] | % Relative Potency Ratio [1] | EC50 [2]
CC(C)C[C@H](NC(=O)[C@H](C)NC(=O)[C@H](CCCNC(=N)N)NC(=O)[C@H](CCCCNC(=O)COCCOCCNC(=O)COCCOCCNC(=O)CC[C@H](NC(=O)CCCCCCCCCCCCCCCCCCC(=O)O)C(=O)O)NC(=O)[C@H](CCCCN)NC(=O)[C@H](CC(=O)O)NC(=O)[C@H](CC(C)C)NC(=O)[C@](C)(Cc1ccccc1)NC(=O)[C@H](CCCCN)NC(=O)[C@H](CO)NC(=O)[C@@H](NC(=O)[C@H](CC(=O)O)NC(=O)[C@H](CO)NC(=O)[C@@H](NC(=O)[C@H](Cc1ccccc1)NC(=O)[C@@H](NC(=O)CNC(=O)[C@H](CCC(N)=O)NC(=O)C(C)(C)NC(=O)[C@@H](N)Cc1c[nH]cn1)[C@@H](C)O)[C@@H](C)O)C(C)C)C(=O)N[C@@H](CC(=O)O)C(=O)N[C@@H](Cc1ccccc1)C(=O)N[C@H](C(=O)N[C@@H](CCCNC(=N)N)C(=O)N[C@@H](Cc1c[nH]c2ccccc12)C(=O)N[C@@H](CC(C)C)C(=O)N[C@@H](CC(C)C)C(=O)NC(C)(C)C(=O)N[C@@H](CCC(=O)O)C(N)=O)C(C)C [Peptide 452] (H-H[Aib]QGTFTSDVSK[αMeF]LDKK([AEEA-AEEA-γGlu-C20 diacid])RALDFVRWLL[Aib]E-NH2) | 0.495 nM | 0.6 | 0.151 nM
CC(C)C[C@H](NC(=O)[C@H](Cc1c[nH]c2ccccc12)NC(=O)[C@H](CCCNC(=N)N)NC(=O)[C@@H](NC(=O)[C@H](Cc1ccccc1)NC(=O)[C@H](CC(=O)O)NC(=O)[C@H](CCC(N)=O)NC(=O)[C@H](C)NC(=O)[C@H](CCCNC(=N)N)NC(=O)[C@H](CCCCNC(=O)COCCOCCNC(=O)COCCOCCNC(=O)CC[C@H](NC(=O)CCCCCCCCCCCCCCCCCCC(=O)O)C(=O)O)NC(=O)[C@H](CCCCN)NC(=O)[C@H](CC(=O)O)NC(=O)[C@H](CC(C)C)NC(=O)[C@](C)(Cc1ccccc1)NC(=O)[C@H](CCCCN)NC(=O)[C@H](CO)NC(=O)[C@@H](NC(=O)[C@H](CC(=O)O)NC(=O)[C@H](CO)NC(=O)[C@@H](NC(=O)[C@H](Cc1ccccc1)NC(=O)[C@@H](NC(=O)CNC(=O)[C@H](CCC(N)=O)NC(=O)C(C)(C)NC(=O)[C@@H](N)Cc1c[nH]cn1)[C@@H](C)O)[C@@H](C)O)C(C)C)C(C)C)C(=O)N[C@@H](CC(C)C)C(=O)N[C@@H](CCC(=O)O)C(=O)NC(C)(C)C(=O)NCC(N)=O [Peptide 453] | 0.17 nM | 1.9 | 0.162 nM
CC(C)C[C@H](NC(=O)[C@H](Cc1c[nH]c2ccccc12)NC(=O)[C@H](CCCNC(=N)N)NC(=O)[C@@H](NC(=O)[C@H](Cc1ccccc1)NC(=O)[C@H](CC(=O)O)NC(=O)[C@H](CCC(N)=O)NC(=O)[C@H](C)NC(=O)[C@H](CCCNC(=N)N)NC(=O)[C@H](CCCCNC(=O)COCCOCCNC(=O)COCCOCCNC(=O)CC[C@H](NC(=O)CCCCCCCCCCCCCCCCCCC(=O)O)C(=O)O)NC(=O)[C@H](CCCCN)NC(=O)[C@H](CC(=O)O)NC(=O)[C@H](CC(C)C)NC(=O)[C@](C)(Cc1ccccc1)NC(=O)[C@H](CCCCN)NC(=O)[C@H](CO)NC(=O)[C@@H](NC(=O)[C@H](CC(=O)O)NC(=O)[C@H](CO)NC(=O)[C@@H](NC(=O)[C@H](Cc1ccccc1)NC(=O)[C@@H](NC(=O)CNC(=O)[C@H](CCC(N)=O)NC(=O)C(C)(C)NC(=O)[C@@H](N)Cc1c[nH]cn1)[C@@H](C)O)[C@@H](C)O)C(C)C)C(C)C)C(=O)N[C@@H](CCC(=O)O)C(=O)N[C@@H](C)C(=O)NC(C)(C)C(=O)NCC(N)=O [Peptide 454] (H-H[Aib]QGTFTSDVSK[αMeF]LDKK([AEEA-AEEA-γGlu-C20 diacid])RAQDFVRWLEA[Aib]G-NH2) | 0.173 nM | 3.1 | 0.274 nM
CC(C)C[C@H](NC(=O)[C@H](Cc1c[nH]c2ccccc12)NC(=O)[C@H](CCCNC(=N)N)NC(=O)[C@@H](NC(=O)[C@H](Cc1ccccc1)NC(=O)[C@H](CC(=O)O)NC(=O)[C@H](CCC(N)=O)NC(=O)[C@H](C)NC(=O)[C@H](CCCNC(=N)N)NC(=O)[C@H](CCCCNC(=O)COCCOCCNC(=O)COCCOCCNC(=O)CC[C@H](NC(=O)CCCCCCCCCCCCCCCCCCC(=O)O)C(=O)O)NC(=O)[C@H](CCCNC(=N)N)NC(=O)[C@H](CC(=O)O)NC(=O)[C@H](CC(C)C)NC(=O)[C@](C)(Cc1ccccc1)NC(=O)[C@H](CCCCN)NC(=O)[C@H](CO)NC(=O)[C@@H](NC(=O)[C@H](CC(=O)O)NC(=O)[C@H](CO)NC(=O)[C@@H](NC(=O)[C@H](Cc1ccccc1)NC(=O)[C@@H](NC(=O)CNC(=O)[C@H](CCC(N)=O)NC(=O)C(C)(C)NC(=O)[C@@H](N)Cc1c[nH]cn1)[C@@H](C)O)[C@@H](C)O)C(C)C)C(C)C)C(=O)N[C@@H](CC(C)C)C(=O)NC(C)(C)C(=O)N[C@@H](CCC(=O)O)C(N)=O [Peptide 456] (H-H[Aib]QGTFTSDVSK[αMeF]LDRK([AEEA-AEEA-γGlu-C20 diacid])RAQDFVRWLL[Aib]E-NH2; N-terminus assumed) | 0.133 nM | 1.2 | 0.0803 nM

These reach a lower EC50 [1]. Values come first.

EC50 [1] | % Relative Potency Ratio [1] | EC50 [2] | Structure (SMILES)
0.127 nM | 1.8 | 0.114 nM | CC(C)C[C@H](NC(=O)[C@H](Cc1c[nH]c2ccccc12)NC(=O)[C@H](CCCNC(=N)N)NC(=O)[C@@H](NC(=O)[C@H](Cc1ccccc1)NC(=O)[C@H](CC(=O)O)NC(=O)[C@H](CCC(N)=O)NC(=O)[C@H](C)NC(=O)[C@H](CCCNC(=N)N)NC(=O)[C@H](CCCCNC(=O)COCCOCCNC(=O)COCCOCCNC(=O)CC[C@H](NC(=O)CC[C@H](NC(=O)CCCCCCCCCCCCCCCCCCC(=O)O)C(=O)O)C(=O)O)NC(=O)[C@H](CCCCN)NC(=O)[C@H](CC(=O)O)NC(=O)[C@H](CC(C)C)NC(=O)[C@](C)(Cc1ccccc1)NC(=O)[C@H](CCCCN)NC(=O)[C@H](CO)NC(=O)[C@@H](NC(=O)[C@H](CC(=O)O)NC(=O)[C@H](CO)NC(=O)[C@@H](NC(=O)[C@H](Cc1ccccc1)NC(=O)[C@@H](NC(=O)CNC(=O)[C@H](CCC(N)=O)NC(=O)C(C)(C)NC(=O)[C@@H](N)Cc1c[nH]cn1)[C@@H](C)O)[C@@H](C)O)C(C)C)C(C)C)C(=O)N[C@@H](CC(C)C)C(=O)NC(C)(C)C(=O)N[C@@H](CCC(=O)O)C(N)=O [Peptide 455] (H-H[Aib]QGTFTSDVSK[αMeF]LDKK([AEEA-AEEA-γGlu-γGlu-C20 diacid])RAQDFVRWLL[Aib]E-NH2)
0.114 nM | 6.7 | 0.385 nM | CC(C)C[C@H](NC(=O)[C@H](Cc1c[nH]c2ccccc12)NC(=O)[C@H](CCC(N)=O)NC(=O)[C@@H](NC(=O)[C@H](Cc1ccccc1)NC(=O)[C@H](CC(=O)O)NC(=O)[C@H](CCCNC(=N)N)NC(=O)[C@H](C)NC(=O)[C@H](CCCNC(=N)N)NC(=O)[C@H](CCCCNC(=O)COCCOCCNC(=O)COCCOCCNC(=O)CC[C@H](NC(=O)CC[C@H](NC(=O)CCCCCCCCCCCCCCCCCCC(=O)O)C(=O)O)C(=O)O)NC(=O)[C@@H](NC(=O)[C@H](CC(=O)O)NC(=O)[C@H](CC(C)C)NC(=O)[C@](C)(Cc1ccccc1)NC(=O)[C@H](CCCCN)NC(=O)[C@H](CO)NC(=O)[C@@H](NC(=O)[C@H](CC(=O)O)NC(=O)[C@H](CO)NC(=O)[C@@H](NC(=O)[C@H](Cc1ccccc1)NC(=O)[C@@H](NC(=O)CNC(=O)[C@H](CCC(N)=O)NC(=O)C(C)(C)NC(=O)[C@@H](N)Cc1c[nH]cn1)[C@@H](C)O)[C@@H](C)O)C(C)C)[C@@H](C)O)C(C)C)C(=O)N[C@@H](CC(C)C)C(=O)N[C@@H](CCC(=O)O)C(=O)NC(C)(C)C(=O)NCC(N)=O [Peptide 458]
0.109 nM | 3.7 | 0.203 nM | CC(C)C[C@H](NC(=O)[C@H](Cc1c[nH]c2ccccc12)NC(=O)[C@H](CCC(N)=O)NC(=O)[C@@H](NC(=O)[C@H](Cc1ccccc1)NC(=O)[C@H](CC(=O)O)NC(=O)[C@H](CCCNC(=N)N)NC(=O)[C@H](C)NC(=O)[C@H](CCCNC(=N)N)NC(=O)[C@H](CCCCNC(=O)COCCOCCNC(=O)COCCOCCNC(=O)CC[C@H](NC(=O)CCCCCCCCCCCCCCCCCCC(=O)O)C(=O)O)NC(=O)[C@@H](NC(=O)[C@H](CC(=O)O)NC(=O)[C@H](CC(C)C)NC(=O)[C@](C)(Cc1ccccc1)NC(=O)[C@H](CCCCN)NC(=O)[C@H](CO)NC(=O)[C@@H](NC(=O)[C@H](CC(=O)O)NC(=O)[C@H](CO)NC(=O)[C@@H](NC(=O)[C@H](Cc1ccccc1)NC(=O)[C@@H](NC(=O)CNC(=O)[C@H](CCC(N)=O)NC(=O)C(C)(C)NC(=O)[C@@H](N)Cc1c[nH]cn1)[C@@H](C)O)[C@@H](C)O)C(C)C)[C@@H](C)O)C(C)C)C(=O)N[C@@H](CC(C)C)C(=O)N[C@@H](CCC(=O)O)C(=O)NC(C)(C)C(=O)NCC(N)=O [Peptide 457]
0.0327 nM | 2.2 | 0.0369 nM | CC(C)C[C@H](NC(=O)[C@H](CC(C)C)NC(=O)[C@H](Cc1c[nH]c2ccccc12)NC(=O)[C@H](CCCNC(=N)N)NC(=O)[C@@H](NC(=O)[C@H](Cc1ccccc1)NC(=O)[C@H](CC(=O)O)NC(=O)[C@H](CCC(N)=O)NC(=O)[C@H](C)NC(=O)[C@H](CCCNC(=N)N)NC(=O)[C@H](CCCCNC(=O)COCCOCCNC(=O)COCCOCCNC(=O)CC[C@H](NC(=O)CCCCCCCCCCCCCCCCC(=O)O)C(=O)O)NC(=O)[C@H](CCCCN)NC(=O)[C@H](CC(=O)O)NC(=O)[C@H](CC(C)C)NC(=O)[C@](C)(Cc1ccccc1)NC(=O)[C@H](CCCCN)NC(=O)[C@H](CO)NC(=O)[C@@H](NC(=O)[C@H](CC(=O)O)NC(=O)[C@H](CO)NC(=O)[C@@H](NC(=O)[C@H](Cc1ccccc1)NC(=O)[C@@H](NC(=O)CNC(=O)[C@H](CCC(N)=O)NC(=O)C(C)(C)NC(=O)[C@@H](N)Cc1c[nH]cn1)[C@@H](C)O)[C@@H](C)O)C(C)C)C(C)C)C(=O)N[C@@H](C)C(=O)N[C@@H](CCC(=O)O)C(N)=O [Peptide 459] (H-H[Aib]QGTFTSDVSK[αMeF]LDKK([AEEA-AEEA-γGlu-C18 diacid])RAQDFVRWLLAE-NH2)
